Results as given in a compilation of properties of binary mixtures (doi:10.1016/j.jct.2023.107038).

Assay: xn = mol fraction of the nth substance listed
Conditions: 96.7 kPa

OCC(F)(F)F + CC(=O)[O-].CC[n+]1ccn(C)c1
viscosity [mPa·s]
Conditions | 293.15 K | 298.15 K | 303.15 K | 308.15 K | 313.15 K | 318.15 K | 323.15 K | 328.15 K | 333.15 K
x1 = 0.048 | 157 | – | – | 67 | 53 | 42.2 | 34.3 | 28.4 | 23.7
x1 = 0.103 | 138 | 104 | 79 | 61 | 48.5 | 39.2 | 31.6 | 26.5 | –
x1 = 0.204 | – | 75 | 59 | – | 37.7 | 30.6 | 25.6 | 21.4 | 18.2
x1 = 0.298 | 69 | 54 | 42.9 | 34.7 | 28.5 | 23.7 | 20 | – | 14.5
x1 = 0.402 | 46.1 | – | – | 24.2 | 21.1 | 17.6 | – | 12.9 | 11.3
x1 = 0.603 | – | 14.6 | 12.4 | 11 | 9.5 | – | 7.4 | 6.5 | –
x1 = 0.801 | 6.2 | 5.5 | 4.85 | 4.32 | – | 3.54 | – | 2.94 | 2.69
x1 = 1 | 2.01 | 1.8 | 1.59 | 1.41 | – | 1.1 | 1.01 | 0.93 | –

OCC(F)(F)F + CC[n+]1ccn(C)c1.O=S(=O)([N-]S(=O)(=O)C(F)(F)F)C(F)(F)F
viscosity [mPa·s]
Conditions | 293.15 K | 298.15 K | 303.15 K | 308.15 K | 313.15 K | 318.15 K | 323.15 K | 328.15 K | 333.15 K
x1 = 0.051 | – | 30.2 | 25.7 | 22 | – | 16.5 | 14.5 | 12.7 | 11.4
x1 = 0.099 | 32.5 | 27.4 | 23.4 | 20 | 17.6 | 15.2 | – | 11.8 | 10.7
x1 = 0.204 | 25.7 | 23.1 | 19.6 | – | 14.3 | 13.1 | 11.5 | 10.1 | 9.3
x1 = 0.303 | – | 17.7 | 15.3 | 13.5 | 11.8 | 10.3 | 9.4 | 8.4 | 7.6
x1 = 0.396 | – | 13.5 | 11.7 | 10.3 | – | 8.2 | 7.3 | 6.8 | –
x1 = 0.599 | 8.3 | 7.3 | – | 5.8 | 5.2 | – | 4.3 | 3.92 | 3.59
x1 = 0.799 | – | 3.53 | 3.16 | 2.96 | 2.68 | 2.47 | 2.27 | – | 1.95
x1 = 1 | 2.01 | 1.8 | 1.59 | – | 1.26 | 1.1 | 1.01 | 0.93 | –

CC(=O)[O-].CC[n+]1ccn(C)c1 + OCC(F)(F)F
x2 = 0
Conditions | viscosity [mPa·s]
293.15 K | 181
298.15 K | 135
303.15 K | 100
308.15 K | 76
323.15 K | 38.5
328.15 K | 31.4
333.15 K | 26

CC[n+]1ccn(C)c1.O=S(=O)([N-]S(=O)(=O)C(F)(F)F)C(F)(F)F + OCC(F)(F)F
x2 = 0
Conditions | viscosity [mPa·s]
293.15 K | 39.2
298.15 K | 32.9
303.15 K | 27.8
318.15 K | 17.6
323.15 K | 15.4
328.15 K | 13.6
333.15 K | 12.2
